The numbers were not newly measured in patent publication US20090311315A1, “Multimicroparticulate Oral Pharmaceutical Form with Modified Release of Angiotensin II Receptor Antagonists” (FLAMEL TECHNOLOGIES, S.A., priority 2005, published 2009), which cites them from elsewhere.

The conditions of the data set: in vivo.

Turning to `CCOc1nc2cccc(C(=O)O)c2n1Cc1ccc(-c2ccccc2-c2nnn[nH]2)cc1` [cardesartan], the elimination half-life was 4 to 9 h.

On to `CCCCC(=O)N(Cc1ccc(-c2ccccc2-c2nnn[nH]2)cc1)[C@H](C(=O)O)C(C)C` [valsartan], for which the elimination half-life is 4 to 6 h.

On to eprosartan cilexitil, for which the elimination half-life was 5 to 9 h.
